From ChEMBL document CHEMBL1201862, “PubChem BioAssay data set” (2004)
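Briefly, cells in 96-well plates were exposed to five compound concentrations for 48 h, and endpoints were estimated by linear interpolation. The concentration for 50% growth inhibition is given as GI50.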 The source made the active and inactive calls. Cut-off read from the data, not from the text of the source: active = GI50 up to about 1.1 µM and inactive = higher.

How the values were obtained:
Experiment in all cases: NCI-60 cell line screen, 48 h
NCI-H23 = tested on: NCI-H23
SK-OV-3 = tested on: SK-OV-3
T47D = tested on: T47D
SNB-19 = tested on: SNB-19
OVCAR-5 = tested on: OVCAR-5
DU-145 = tested on: DU-145
EKVX = tested on: EKVX
SK-MEL-2 = tested on: SK-MEL-2
A549 = tested on: A549
M14 = tested on: M14
HOP-62 = tested on: HOP-62
UACC-257 = tested on: UACC-257
SR = tested on: SR
SN12C = tested on: SN12C
LOX IMVI = tested on: LOX IMVI
TK-10 = tested on: TK-10
HT-29 = tested on: HT-29
OVCAR-4 = tested on: OVCAR-4
CAKI-1 = tested on: CAKI-1
OVCAR-8 = tested on: OVCAR-8

Measured: GI50

NCCCN1CCN(CC(=O)O)CCN(CCCN)CCN(CC(=O)O)CC1
inactive: NCI-H23 > 100 µM | SK-OV-3 > 92 µM | T47D > 100 µM | SNB-19 > 100 µM | OVCAR-5 > 38.9 µM | DU-145 > 100 µM | EKVX > 77.6 µM | SK-MEL-2 > 33.3 µM | A549 5.52 µM | M14 82.6 µM | HOP-62 > 100 µM | UACC-257 > 100 µM | SR > 26.9 µM | SN12C > 100 µM | LOX IMVI > 100 µM | TK-10 > 100 µM | HT-29 > 19.9 µM | OVCAR-4 > 100 µM | CAKI-1 > 100 µM | OVCAR-8 > 86.1 µM

COc1ccc(N2C=Nn3c(nc4sc(C)c(C)c4c3=O)C2)cc1
inactive: NCI-H23 > 100 µM | SK-OV-3 > 100 µM | T47D > 100 µM | SNB-19 > 100 µM | OVCAR-5 > 100 µM | DU-145 > 100 µM | EKVX > 100 µM | SK-MEL-2 > 100 µM | A549 > 100 µM | M14 > 100 µM | HOP-62 28.6 µM | UACC-257 > 100 µM | SR > 100 µM | SN12C > 100 µM | LOX IMVI > 100 µM | TK-10 > 100 µM | HT-29 > 100 µM | OVCAR-4 > 100 µM | CAKI-1 > 100 µM | OVCAR-8 > 100 µM

Cc1ccc(-c2cc(-c3cc(-c4ccc(C)cc4C)[nH]n3)[nH]n2)c(C)c1
inactive: NCI-H23 19.8 µM | SK-OV-3 15.2 µM | T47D 15 µM | SNB-19 18.5 µM | OVCAR-5 23.7 µM | DU-145 16.3 µM | EKVX 20.7 µM | SK-MEL-2 18.2 µM | A549 13.9 µM | M14 15.8 µM | HOP-62 13.9 µM | UACC-257 12.4 µM | SR 10.2 µM | SN12C 15.3 µM | LOX IMVI 19.9 µM | TK-10 15.6 µM | HT-29 10.8 µM | OVCAR-4 8.71 µM | CAKI-1 18.8 µM | OVCAR-8 15 µM

CCOC(=O)CCC(C(=O)OCC)n1nnc2ccc(Nc3c(C)[n+]([O-])c4ccc(Cl)cc4[n+]3[O-])cc21 (stereo not given)
inactive: NCI-H23 33.5 µM | SK-OV-3 60.1 µM | T47D 34 µM | SNB-19 > 100 µM | OVCAR-5 54.1 µM | DU-145 50.6 µM | EKVX 17.1 µM | SK-MEL-2 30.9 µM | A549 57.3 µM | M14 37.5 µM | HOP-62 36.1 µM | UACC-257 19.2 µM | SR 33 µM | SN12C 46.2 µM | LOX IMVI 28.8 µM | TK-10 66.2 µM | HT-29 52.7 µM | OVCAR-4 33.8 µM | CAKI-1 49.2 µM | OVCAR-8 39.2 µM

CC(C)C1OCC(CO)CO1 (stereo not given)
inactive: NCI-H23 > 100 µM | SK-OV-3 > 100 µM | T47D > 100 µM | SNB-19 > 100 µM | OVCAR-5 > 100 µM | DU-145 > 100 µM | EKVX > 100 µM | SK-MEL-2 > 100 µM | A549 > 100 µM | M14 > 100 µM | HOP-62 > 100 µM | UACC-257 > 100 µM | SR > 100 µM | SN12C > 100 µM | LOX IMVI > 100 µM | TK-10 > 100 µM | HT-29 > 100 µM | OVCAR-4 > 100 µM | CAKI-1 > 100 µM | OVCAR-8 > 100 µM

CC(C)=C1C(=O)C[C@]2(C)C[C@H]3/C(=C(/C)CCC12)CC[C@@]3(C)O (stereo not given in full)
inactive: NCI-H23 > 50 µM | SK-OV-3 > 50 µM | T47D 46.9 µM | SNB-19 > 50 µM | OVCAR-5 > 50 µM | DU-145 > 50 µM | EKVX > 50 µM | SK-MEL-2 > 50 µM | A549 > 50 µM | M14 > 50 µM | HOP-62 > 50 µM | UACC-257 > 50 µM | SR 20.7 µM | SN12C > 50 µM | LOX IMVI > 50 µM | TK-10 > 50 µM | HT-29 > 50 µM | OVCAR-4 > 50 µM | CAKI-1 > 50 µM | OVCAR-8 > 50 µM

CC(C)=CCC[C@@H](C)C1=C(N)C(=O)C(C)=C(O)C1=O
inactive: NCI-H23 42.7 µM | SK-OV-3 71.1 µM | T47D 42.9 µM | SNB-19 60.7 µM | OVCAR-5 53.1 µM | DU-145 > 75 µM | EKVX 30.6 µM | SK-MEL-2 65.9 µM | A549 32.6 µM | M14 38.7 µM | HOP-62 55.1 µM | UACC-257 > 75 µM | SR 26.3 µM | SN12C 45.8 µM | LOX IMVI 36.6 µM | TK-10 53.1 µM | HT-29 15.6 µM | OVCAR-4 35.7 µM | CAKI-1 35.2 µM | OVCAR-8 22.4 µM

C[n+]1c(/C=C/c2ccc(O)c3ncccc23)[se]c2ccccc21
inactive: NCI-H23 4.05 µM | SK-OV-3 5.96 µM | T47D 3.2 µM | SNB-19 4.5 µM | OVCAR-5 9.86 µM | DU-145 4.26 µM | EKVX 4.25 µM | SK-MEL-2 4.26 µM | A549 7.06 µM | M14 4.67 µM | HOP-62 3.3 µM | UACC-257 2.29 µM | SR 1.64 µM | SN12C 2.99 µM | LOX IMVI 2.33 µM | TK-10 3.1 µM | HT-29 4.11 µM | OVCAR-4 4.2 µM | CAKI-1 5.01 µM | OVCAR-8 2.87 µM

Nc1nc(-c2ccccc2)cc(-c2ccc(F)cc2)c1-c1ccc(Cl)cc1
inactive: NCI-H23 > 100 µM | SK-OV-3 > 100 µM | T47D > 100 µM | SNB-19 > 100 µM | OVCAR-5 > 100 µM | DU-145 > 100 µM | EKVX > 100 µM | SK-MEL-2 > 100 µM | A549 > 100 µM | M14 > 100 µM | HOP-62 32.6 µM | UACC-257 > 100 µM | SR 22.2 µM | SN12C > 100 µM | LOX IMVI > 100 µM | TK-10 > 100 µM | HT-29 13.2 µM | OVCAR-4 88.9 µM | CAKI-1 > 100 µM | OVCAR-8 > 100 µM

COc1ccc([C@]23CCN(S(=O)(=O)c4ccc(C)cc4)[C@H]2[C@H](CO)C2(CC3)OCC(C)(C)CO2)cc1OC
inactive: NCI-H23 > 100 µM | SK-OV-3 > 100 µM | T47D > 100 µM | SNB-19 > 100 µM | OVCAR-5 > 100 µM | DU-145 > 100 µM | EKVX > 100 µM | SK-MEL-2 > 100 µM | A549 > 100 µM | M14 > 100 µM | HOP-62 > 100 µM | UACC-257 > 100 µM | SR > 100 µM | SN12C > 100 µM | LOX IMVI > 100 µM | TK-10 > 100 µM | HT-29 > 100 µM | OVCAR-4 > 100 µM | CAKI-1 > 100 µM | OVCAR-8 > 100 µM
